pIC50: −log10 of the molar value.
How the values were obtained:
[1] = biological target: CDK2/CyclinA (Homo sapiens, UniProt P24941); assay: CDK2/CycA kinase assay (Nanosyn, Caliper microfluidic); type: biochemical; settings: 12-point dose-response, ATP 50 μM (Km), 3 hr; read-out: Inhibition of CDK kinases: Cdk2/CycA
Procedure: (§1) Selected compounds disclosed herein were tested in CDK4/cyclinD1, CDK6/CycD3, CDK2/CycA, CDK2/cyclinE, CDK5/p25, CDK5/p35, CDK7/CycH/MAT1, and CDK9/CycT kinase assays by Nanosyn (Santa Clara, Calif.) to determine their inhibitory effect on these CDKs. The assays were performed using microfluidic kinase detection technology (Caliper Assay Platform). The compounds were tested in 12-point dose-response format in singlicate at Km for ATP. Phosphoacceptor substrate peptide concentration used was 1.25 μM for all assays (except […] was used for the CKD7/CycH/MAT1 assay and Staurosporine was used as the reference compound for all assays. Specifics of each assay are as described below:
CDK2/CyclinA: Enzyme concentration: 0.2 nM; ATP concentration: 50 μM; Incubation time: 3 hr.

[2] = biological target: CDK5/p25 (Homo sapiens, UniProt Q00535); assay: CDK5/p25 kinase assay (Nanosyn, Caliper microfluidic); type: biochemical; settings: 12-point dose-response, ATP 20 μM (Km), 3 hr; read-out: Inhibition of CDK kinases: Cdk5/p25
Procedure: as §1
CDK5/p25: Enzyme concentration: 0.1 nM; ATP concentration: 20 μM; Incubation time: 3 hr.

[3] = biological target: CDK2/CyclinE (Homo sapiens, UniProt P24941); assay: CDK2/cyclinE kinase assay (Nanosyn, Caliper microfluidic); type: biochemical; settings: read-out: Inhibition of CDK kinases: Cdk2/CycE
Procedure: as §1
CDK2/CyclinE: Enzyme concentration: 0.2 nM; ATP concentration: 100 μM; Incubation time: 3 hr.

[4] = biological target: CDK6/CyclinD3 (Homo sapiens, UniProt Q00534); assay: CDK6/CycD3 kinase assay (Nanosyn, Caliper microfluidic); type: biochemical; settings: 12-point dose-response, ATP 300 μM (Km), 3 hr; read-out: Inhibition of CDK kinases: Cdk6/CycD3
Procedure: as §1
CDK6/CyclinD3: Enzyme concentration: 10 nM; ATP concentration: 300 μM; Incubation time: 3 hr.

[5] = biological target: CDK9/CycT (Homo sapiens, UniProt P50750); assay: CDK9/CycT kinase assay (Nanosyn, Caliper microfluidic); type: biochemical; settings: read-out: Inhibition of CDK kinases: Cdk9/Cyc T
Procedure: as §1
CDK9/CycT: Enzyme concentration: 5 nM; ATP concentration: 10 μM; Incubation time: 17 hr.

[6] = biological target: CDK4/CyclinD1 (Homo sapiens, UniProt P11802); assay: CDK4/cyclinD1 kinase assay (Nanosyn, Caliper microfluidic); type: biochemical; settings: 12-point dose-response, ATP 200 μM (Km), 3 hr; read-out: Inhibition of CDK kinases: Cdk4/CycD1
Procedure: as §1
CDK4/CyclinD1: Enzyme concentration: 1 nM; ATP concentration: 200 μM; Incubation time: 3 hr.

[7] = biological target: CDK5/p35 (Homo sapiens, UniProt Q00535); assay: CDK5/p35 kinase assay (Nanosyn, Caliper microfluidic); type: biochemical; settings: 12-point dose-response, ATP 20 μM (Km), 3 hr; read-out: Inhibition of CDK kinases: Cdk5/p35
Procedure: as §1
CDK5/p35: Enzyme concentration: 0.07 nM; ATP concentration: 20 μM; Incubation time: 3 hr.

[8] = biological target: CDK7/CycH/MAT1 (Homo sapiens, UniProt P50613); assay: CDK7/CycH/MAT1 kinase assay (Nanosyn, Caliper microfluidic); type: biochemical; settings: 12-point dose-response, ATP 50 μM (Km), 3 hr; read-out: Inhibition of CDK kinases: Cdk7/CycH/MAT1
Procedure: as §1
CDK7/CycH/MAT1: Enzyme concentration: 5 nM; ATP concentration: 50 μM; Incubation time: 3 hr.

[9] = tested on: CDK4/6-dependent cell lines; settings: cited from earlier work
[10] = Grade 3/4 neutropenia and leukopenia, clinical trial; cited from earlier work

Sequence of CDK5/p35 (Q00535 whole entry, species assumed): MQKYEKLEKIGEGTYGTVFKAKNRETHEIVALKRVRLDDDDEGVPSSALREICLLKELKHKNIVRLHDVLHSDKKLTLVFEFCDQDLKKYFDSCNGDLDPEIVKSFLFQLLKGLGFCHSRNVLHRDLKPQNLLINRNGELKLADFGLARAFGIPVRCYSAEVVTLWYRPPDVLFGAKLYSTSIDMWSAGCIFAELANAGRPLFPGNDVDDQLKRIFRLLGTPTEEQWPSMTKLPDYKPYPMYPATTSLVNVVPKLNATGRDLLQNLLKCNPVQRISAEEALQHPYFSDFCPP
Sequence of CDK5/p35 (Q15078 whole entry partner, species assumed): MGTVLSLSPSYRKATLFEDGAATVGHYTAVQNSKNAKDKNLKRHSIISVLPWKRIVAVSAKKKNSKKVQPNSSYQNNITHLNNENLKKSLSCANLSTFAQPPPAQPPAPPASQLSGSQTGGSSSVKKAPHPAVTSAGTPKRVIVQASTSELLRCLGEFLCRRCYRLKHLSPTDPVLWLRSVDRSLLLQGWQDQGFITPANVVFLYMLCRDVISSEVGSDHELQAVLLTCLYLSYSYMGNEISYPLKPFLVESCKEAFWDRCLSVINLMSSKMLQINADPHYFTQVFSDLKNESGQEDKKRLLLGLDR
Sequence of CDK5/p25 (Q00535 whole entry, species assumed): as the sequence (Q00535 whole entry, species assumed) above
Sequence of CDK5/p25 (Q15078 99-307 partner limits assumed, species assumed): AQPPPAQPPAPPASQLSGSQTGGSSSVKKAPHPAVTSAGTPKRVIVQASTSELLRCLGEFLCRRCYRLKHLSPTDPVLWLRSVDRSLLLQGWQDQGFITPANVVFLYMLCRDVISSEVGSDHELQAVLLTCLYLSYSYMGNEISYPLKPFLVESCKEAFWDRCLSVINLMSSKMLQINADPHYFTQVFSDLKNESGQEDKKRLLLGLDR
Sequence of CDK9/CycT (P50750 whole entry, species assumed): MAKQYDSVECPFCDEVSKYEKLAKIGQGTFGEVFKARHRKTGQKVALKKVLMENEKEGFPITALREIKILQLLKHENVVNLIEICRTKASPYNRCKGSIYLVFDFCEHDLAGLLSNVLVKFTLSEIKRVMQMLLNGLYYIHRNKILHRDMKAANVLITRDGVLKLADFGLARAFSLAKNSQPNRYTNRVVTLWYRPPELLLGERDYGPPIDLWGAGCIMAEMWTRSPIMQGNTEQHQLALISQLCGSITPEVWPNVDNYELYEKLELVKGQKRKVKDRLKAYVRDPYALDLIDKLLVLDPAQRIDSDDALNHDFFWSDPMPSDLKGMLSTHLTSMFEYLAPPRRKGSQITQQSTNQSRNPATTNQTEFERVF
Sequence of CDK9/CycT (O60563 whole entry partner, species assumed): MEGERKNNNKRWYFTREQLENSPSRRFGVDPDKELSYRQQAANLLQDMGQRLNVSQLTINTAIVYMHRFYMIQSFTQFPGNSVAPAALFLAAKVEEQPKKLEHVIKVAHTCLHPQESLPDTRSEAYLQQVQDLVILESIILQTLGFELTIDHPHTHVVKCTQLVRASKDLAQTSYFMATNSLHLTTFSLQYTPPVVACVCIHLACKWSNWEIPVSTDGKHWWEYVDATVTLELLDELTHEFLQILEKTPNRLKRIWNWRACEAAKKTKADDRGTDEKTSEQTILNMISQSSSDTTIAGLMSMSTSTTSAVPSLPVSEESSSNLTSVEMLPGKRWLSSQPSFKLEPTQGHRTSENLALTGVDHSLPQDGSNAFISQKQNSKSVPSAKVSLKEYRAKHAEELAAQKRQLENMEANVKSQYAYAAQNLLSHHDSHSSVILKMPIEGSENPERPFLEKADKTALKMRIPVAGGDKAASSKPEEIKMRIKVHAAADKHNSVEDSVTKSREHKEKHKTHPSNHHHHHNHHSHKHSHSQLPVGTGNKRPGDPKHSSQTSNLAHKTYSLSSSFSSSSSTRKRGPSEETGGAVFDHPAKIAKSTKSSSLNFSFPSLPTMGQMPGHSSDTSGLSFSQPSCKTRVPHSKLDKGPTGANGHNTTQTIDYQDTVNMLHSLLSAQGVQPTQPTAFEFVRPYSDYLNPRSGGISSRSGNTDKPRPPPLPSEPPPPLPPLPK
Sequence of CDK4/CyclinD1 (P11802 whole entry, species assumed): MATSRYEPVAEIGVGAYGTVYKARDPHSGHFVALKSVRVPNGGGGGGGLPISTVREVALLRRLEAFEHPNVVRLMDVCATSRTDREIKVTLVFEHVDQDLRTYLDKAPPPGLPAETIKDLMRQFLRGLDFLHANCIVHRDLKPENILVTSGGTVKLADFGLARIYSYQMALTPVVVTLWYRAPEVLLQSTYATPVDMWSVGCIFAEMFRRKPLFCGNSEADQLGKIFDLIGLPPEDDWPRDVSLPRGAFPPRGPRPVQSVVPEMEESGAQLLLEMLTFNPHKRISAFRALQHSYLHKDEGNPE
Sequence of CDK4/CyclinD1 (P24385 whole entry partner, species assumed): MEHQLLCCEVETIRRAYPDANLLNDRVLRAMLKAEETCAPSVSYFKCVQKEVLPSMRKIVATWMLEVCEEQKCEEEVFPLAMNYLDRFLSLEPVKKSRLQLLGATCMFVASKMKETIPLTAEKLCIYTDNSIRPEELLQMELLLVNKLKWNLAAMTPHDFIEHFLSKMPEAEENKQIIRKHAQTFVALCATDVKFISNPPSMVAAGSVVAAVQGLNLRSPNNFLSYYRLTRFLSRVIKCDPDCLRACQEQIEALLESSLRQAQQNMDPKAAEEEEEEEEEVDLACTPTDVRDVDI
Sequence of CDK7/CycH/MAT1 (P50613 whole entry, species assumed): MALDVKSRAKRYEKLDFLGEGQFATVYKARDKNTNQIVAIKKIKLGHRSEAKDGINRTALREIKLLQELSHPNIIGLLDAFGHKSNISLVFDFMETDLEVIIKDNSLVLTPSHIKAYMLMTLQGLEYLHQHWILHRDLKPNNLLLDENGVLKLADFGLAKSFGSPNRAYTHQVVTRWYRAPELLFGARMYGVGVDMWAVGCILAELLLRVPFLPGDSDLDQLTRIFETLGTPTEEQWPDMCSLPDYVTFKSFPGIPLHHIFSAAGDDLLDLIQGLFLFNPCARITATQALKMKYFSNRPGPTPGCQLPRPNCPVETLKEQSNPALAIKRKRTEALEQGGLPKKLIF
Sequence of CDK7/CycH/MAT1 (P51946 whole entry partner, species assumed): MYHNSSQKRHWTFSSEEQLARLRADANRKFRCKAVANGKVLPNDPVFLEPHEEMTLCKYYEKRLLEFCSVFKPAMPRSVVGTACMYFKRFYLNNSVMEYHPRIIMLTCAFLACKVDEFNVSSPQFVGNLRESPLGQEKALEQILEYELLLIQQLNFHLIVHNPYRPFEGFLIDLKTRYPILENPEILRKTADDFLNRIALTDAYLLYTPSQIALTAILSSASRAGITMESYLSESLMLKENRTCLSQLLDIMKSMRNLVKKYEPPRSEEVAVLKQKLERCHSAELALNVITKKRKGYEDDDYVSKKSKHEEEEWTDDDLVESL
Sequence of CDK7/CycH/MAT1 (P51948 whole entry partner, species assumed): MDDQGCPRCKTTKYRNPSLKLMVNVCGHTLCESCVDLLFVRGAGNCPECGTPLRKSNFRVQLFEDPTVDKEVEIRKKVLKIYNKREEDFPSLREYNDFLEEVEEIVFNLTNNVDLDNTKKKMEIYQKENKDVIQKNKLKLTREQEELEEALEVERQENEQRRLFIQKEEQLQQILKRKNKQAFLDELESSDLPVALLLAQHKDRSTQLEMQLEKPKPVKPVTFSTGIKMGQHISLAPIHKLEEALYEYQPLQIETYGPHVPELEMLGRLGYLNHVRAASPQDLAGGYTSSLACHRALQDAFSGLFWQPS
Sequence of CDK6/CyclinD3 (Q00534 whole entry, species assumed): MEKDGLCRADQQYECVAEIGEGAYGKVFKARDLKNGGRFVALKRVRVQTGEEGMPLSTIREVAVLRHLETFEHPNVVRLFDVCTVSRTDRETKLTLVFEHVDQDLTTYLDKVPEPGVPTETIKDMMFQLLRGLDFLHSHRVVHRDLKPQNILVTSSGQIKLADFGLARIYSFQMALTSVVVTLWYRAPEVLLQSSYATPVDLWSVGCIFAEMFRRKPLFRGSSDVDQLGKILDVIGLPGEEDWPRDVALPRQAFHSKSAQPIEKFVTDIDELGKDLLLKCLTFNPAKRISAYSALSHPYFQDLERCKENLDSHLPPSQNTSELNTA
Sequence of CDK6/CyclinD3 (P30281 whole entry partner, species assumed): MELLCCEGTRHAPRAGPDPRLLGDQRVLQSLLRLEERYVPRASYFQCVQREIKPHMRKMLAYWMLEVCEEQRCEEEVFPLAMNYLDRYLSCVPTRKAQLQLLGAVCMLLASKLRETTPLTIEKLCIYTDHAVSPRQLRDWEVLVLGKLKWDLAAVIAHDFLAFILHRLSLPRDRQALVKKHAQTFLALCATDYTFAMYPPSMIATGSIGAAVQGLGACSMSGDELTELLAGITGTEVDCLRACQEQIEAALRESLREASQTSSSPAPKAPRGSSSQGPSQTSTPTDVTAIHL

Row | SMILES | pIC50 [1] | pIC50 [2] | pIC50 [3] | pIC50 [4] | pIC50 [5] | pIC50 [6] | pIC50 [7] | pIC50 [8] | IR protective characteristics [9] | patients requiring a dose interruption [10] [%] | patients requiring a dose reduction [10] [%]
1 | CN1CCN(c2ccc(Nc3ncc4c(n3)N3C(CC4=O)C(=O)NCC3(C)C)nc2)CC1 (centres unmarked) [YYY] | < 4.00 | < 4.00 | < 4.00 | 4.00 to 5.00 | < 4.00 | > 5.00 | < 4.00 | – | – | – | –
2 | CN1CCN(c2ccc(Nc3ncc4c(n3)N3C(CC4)C(=O)NCC34CCCCC4)nc2)CC1 (centres unmarked) [BBBB] | 4.00 to 5.00 | < 4.00 | < 4.00 | 4.00 to 5.00 | < 4.00 | 4.00 to 5.00 | < 4.00 | < 4.00 | – | – | –
3 | CN1CCN(c2ccc(Nc3ncc4c(n3)N3C(CC4=O)C(=O)NCC34CCCCC4)nc2)CC1 (centres unmarked) [AAAA] | < 4.00 | < 4.00 | < 4.00 | < 4.00 | < 4.00 | < 4.00 | < 4.00 | < 4.00 | – | – | –
4 | O=C1NC(=O)c2c1c1c3ccccc3[nH]c1c1[nH]c3cc(Br)ccc3c21 [Compound 2BrIC, 2-bromo-12,13-dihydro-5H-indolo[2,3-a]pyrrolo[3,4]carbazole-5,6-dione] | – | – | – | – | – | – | – | – | exhibited IR protective characteristics | – | –
5 | CC(=O)c1c(C)c2cnc(Nc3ccc(N4CCNCC4)cn3)nc2n(C2CCCC2)c1=O [PD0332991, 6-acetyl-8-cyclopentyl-5-methyl-2-(5-piperazin-1-yl-pyridin-2-ylammino)-8H-pyrido-[2,3-d]-pyrimidin-7-one] | – | – | – | – | – | – | – | – | exhibited IR protective characteristics | 71 | 35
6 | CN1CCN(c2ccc(Nc3ncc4c(n3)N3CCNC(=O)C3CC4=O)nc2)CC1 (centres unmarked) [GGGG] | < 4.00 | < 4.00 | < 4.00 | 4.00 to 5.00 | < 4.00 | 4.00 to 5.00 | < 4.00 | < 4.00 | – | – | –
7 | CN1CCN(c2ccc(Nc3ncc4c(n3)N3C(CC4=O)C(=O)NCC34CCCC4)nc2)CC1 (centres unmarked) [CCCC] | < 4.00 | < 4.00 | < 4.00 | < 4.00 | < 4.00 | < 4.00 | < 4.00 | < 4.00 | – | – | –
8 | CN1CCN(c2ccc(Nc3ncc4c(n3)N3C(CC4)C(=O)NCC3(C)C)nc2)CC1 (centres unmarked) [ZZZ] | < 4.00 | < 4.00 | < 4.00 | < 4.00 | < 4.00 | < 4.00 | < 4.00 | – | – | – | –
